What is called IC50 is the concentration needed to halve the response being measured.

Assay [1] deals with T1, Kv1.3 potassium channel (Homo sapiens, UniProt P22001).
T1 construct: expressed in transfected cells
Description: Kv1.3 potassium channel blocker activity, automated whole-cell patch clamp (Patchliner). The class given is cell-based. Conditions: CHO-K1 cells stably expressing Kv1.3; whole cell current inhibition; read-out: Kv1.3_IC50. In a few lines: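 Peak-current block was recorded on stable Kv1.3 CHO-K1 cells by automated patch clamp, stepping from a −90 mV holding potential to +40 mV for 100 ms at 0.1 Hz with 10 s breaks between trains. Online P/4 leak subtraction, 10 kHz sampling; compound exposure under 10 s per train.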

The target in assay [2] is hERG channel (Homo sapiens, UniProt Q12809). Description: hERG electrophysiology, automated whole-cell patch clamp (Patchliner).
Sequence of hERG channel (Q12809 whole entry): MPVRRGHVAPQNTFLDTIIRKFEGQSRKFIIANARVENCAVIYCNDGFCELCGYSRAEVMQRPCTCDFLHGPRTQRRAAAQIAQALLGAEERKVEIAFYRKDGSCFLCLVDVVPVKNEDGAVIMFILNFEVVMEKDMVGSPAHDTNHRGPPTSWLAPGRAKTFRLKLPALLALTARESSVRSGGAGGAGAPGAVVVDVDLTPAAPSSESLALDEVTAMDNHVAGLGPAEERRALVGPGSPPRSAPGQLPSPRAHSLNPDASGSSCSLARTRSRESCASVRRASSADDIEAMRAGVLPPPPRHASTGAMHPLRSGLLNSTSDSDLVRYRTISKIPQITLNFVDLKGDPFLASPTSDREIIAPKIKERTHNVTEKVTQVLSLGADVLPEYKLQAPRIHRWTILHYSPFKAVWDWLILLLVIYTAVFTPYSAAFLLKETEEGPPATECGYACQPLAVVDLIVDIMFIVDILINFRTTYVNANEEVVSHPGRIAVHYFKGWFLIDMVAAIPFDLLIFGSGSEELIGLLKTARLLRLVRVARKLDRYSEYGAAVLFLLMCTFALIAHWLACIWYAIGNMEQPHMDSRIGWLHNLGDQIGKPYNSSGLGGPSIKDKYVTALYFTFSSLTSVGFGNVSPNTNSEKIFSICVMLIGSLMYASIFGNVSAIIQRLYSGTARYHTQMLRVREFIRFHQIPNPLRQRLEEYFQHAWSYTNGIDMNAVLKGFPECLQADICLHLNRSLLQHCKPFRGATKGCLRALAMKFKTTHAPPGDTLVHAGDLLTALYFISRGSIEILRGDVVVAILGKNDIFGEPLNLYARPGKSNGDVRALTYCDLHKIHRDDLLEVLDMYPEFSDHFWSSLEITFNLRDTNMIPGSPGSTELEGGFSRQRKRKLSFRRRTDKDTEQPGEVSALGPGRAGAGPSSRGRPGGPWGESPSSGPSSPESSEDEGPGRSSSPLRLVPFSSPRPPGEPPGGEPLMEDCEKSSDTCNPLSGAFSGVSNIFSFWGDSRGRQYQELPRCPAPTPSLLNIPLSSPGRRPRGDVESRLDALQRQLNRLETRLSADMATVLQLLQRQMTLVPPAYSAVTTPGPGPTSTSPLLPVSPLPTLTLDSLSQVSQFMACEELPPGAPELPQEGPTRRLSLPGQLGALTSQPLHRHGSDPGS

T1 sequence (P22001 whole entry): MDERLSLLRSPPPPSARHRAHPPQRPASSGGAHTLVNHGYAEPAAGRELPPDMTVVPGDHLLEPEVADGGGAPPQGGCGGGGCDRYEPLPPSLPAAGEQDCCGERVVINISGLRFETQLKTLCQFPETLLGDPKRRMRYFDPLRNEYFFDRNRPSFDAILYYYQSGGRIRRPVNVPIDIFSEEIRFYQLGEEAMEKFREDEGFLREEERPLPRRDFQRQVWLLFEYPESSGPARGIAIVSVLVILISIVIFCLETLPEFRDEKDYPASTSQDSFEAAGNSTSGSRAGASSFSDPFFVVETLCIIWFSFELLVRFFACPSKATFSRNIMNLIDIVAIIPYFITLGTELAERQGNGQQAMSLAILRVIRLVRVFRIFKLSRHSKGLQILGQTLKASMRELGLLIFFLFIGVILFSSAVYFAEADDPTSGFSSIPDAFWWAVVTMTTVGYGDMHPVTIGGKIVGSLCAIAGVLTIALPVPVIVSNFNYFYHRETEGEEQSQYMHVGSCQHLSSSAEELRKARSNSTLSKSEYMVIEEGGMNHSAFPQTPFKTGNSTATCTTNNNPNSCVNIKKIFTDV

In the case of `C[C@H](O)[C@@H](N)C(=O)N1CCC([C@@H](N)c2cc(Cl)c(Cl)cc2O)CC1` [Compound 173, (2R,3S)-2-amino-1-(4-((R)-amino(4,5-dichloro-2-hydroxyphenyl)methyl)piperidin-1-yl)-3-hydroxybutan-1-one bis (trifluoroacetic acid)], the values for the IC50 in assay [1] and in assay [2] were under 0.5 µM and over 30 µM, respectively.

With `C[C@H](N)C(=O)N1CCC([C@@H](N)c2cc(Cl)c(Cl)cc2O)CC1` (single isomer, unassigned) [Compound 76], the IC50 is under 0.5 µM in assay [1] and over 30 µM in assay [2].

Take `CC(=O)N1CC(C(=O)N2CCC([C@@H](N)c3cc(Cl)c(Cl)cc3O)CC2)C1` [Compound 200, 1-(3-[4-[(R)-amino(4,5-dichloro-2-hydroxyphenyl)methyl]piperidine-1-carbonyl]azetidin-1-yl)ethan-1-one]: the IC50 in assay [1] is under 10 µM; in assay [2], over 30 µM.

Consider `CO[C@H](CO)C(=O)N1CCC([C@@H](N)c2cc(Cl)c(Cl)cc2O)CC1` [Compound 168, (2R)-1-[4-[(R)-amino(4,5-dichloro-2-hydroxyphenyl)methyl]piperidin-1-yl]-3-hydroxy-2-methoxypropan-1-one trifluoroacetic acid], for which the IC50 in assay [1] was under 0.5 µM; in assay [2], over 30 µM.

Regarding `N[C@@H](c1c(O)cc(Cl)c(Cl)c1F)C1CCN(C(=O)[C@H](O)CO)CC1` [Compound 291, (R)-1-(4-((R)-amino(3,4-dichloro-2-fluoro-6-hydroxyphenyl)methyl)piperidin-1-yl)-2,3-dihydroxypropan-1-one], the concentration for half-maximal inhibition (IC50) is under 0.5 µM in assay [1] and over 30 µM in assay [2].

With `Cn1cc(C(=O)N2CCC([C@@H](N)c3cc(Cl)c(Cl)cc3O)CC2)ccc1=O` [Compound 232, 5-[4-[(R)-amino(4,5-dichloro-2-hydroxyphenyl)methyl]piperidine-1-carbonyl]-1-methylpyridin-2-one], the IC50 was under 0.5 µM in assay [1] and over 30 µM in assay [2].

Regarding `N[C@@H](c1cc(Cl)c(CF)cc1O)C1CCN(C(=O)[C@H](O)CO)CC1` [Compound 226, (2R)-1-[4-[(R)-amino[5-chloro-4-(fluoromethyl)-2-hydroxyphenyl]methyl]piperidin-1-yl]-2,3-dihydroxypropan-1-one Trifluoroacetic Acid], the results for the IC50 in assay [1] and in assay [2] were under 0.5 µM and over 30 µM, respectively.

Turning to `CC(=O)N1CCC([C@@H](N)c2cc(Cl)c(Cl)cc2O)CC1` (single isomer, unassigned) [Compound 20], the IC50 in assay [1] was under 0.5 µM; in assay [2] it was under 30 µM.

Turning to `Nc1nnc(N2CCC([C@@H](N)c3cc(Cl)c(Cl)cc3O)CC2)s1` [Compound 151, 2-[(R)-amino[1-(5-amino-1,3,4-thiadiazol-2-yl)piperidin-4-yl]methyl]-4,5-dichlorophenol Trifluoroacetic Acid], the IC50 is under 10 µM in assay [1] and under 30 µM in assay [2].

`N[C@@H](c1cc(Cl)c(Cl)cc1O)C1CCN(C(=O)[C@@H]2CCC(=O)N2)CC1` [Compound 166, (5S)-5-[4-[(R)-amino(4,5-dichloro-2-hydroxyphenyl)methyl]piperidine-1-carbonyl] pyrrolidin-2-one trifluoroacetic acid]: the IC50 is under 10 µM in assay [1] and over 30 µM in assay [2].

With `C[C@]1(C(=O)N2CCC([C@@H](N)c3cc(Cl)c(Cl)cc3O)CC2)CCCN1` [Compound 96], the concentration for half-maximal inhibition (IC50) in assay [1] was under 0.5 µM; in assay [2], over 30 µM.

On to `N[C@@H](c1cc(Cl)c(Cl)cc1O)C1CCN(S(=O)(=O)c2cn[nH]c2)CC1` [Compound 158, 2-[(R)-amino[1-(1H-pyrazole-4-sulfonyl)piperidin-4-yl]methyl]-4,5-dichlorophenol Trifluoroacetic Acid], for which the IC50 in assay [1] is under 10 µM; in assay [2] it was under 30 µM.

In the case of `Cc1cc(O)c([C@H](N)C2CCN(C(=O)CO)CC2)cc1Cl` [Compound 233, (R)-1-(4-(amino(5-chloro-2-hydroxy-4-methylphenyl)methyl)piperidin-1-yl)-2-hydroxyethan-1-one trifluoroacetic acid], the IC50 in assay [1] is under 0.5 µM; in assay [2] it was over 30 µM.

Take `CC(C)(CO)C(=O)N1CCC([C@@H](N)c2cc(Cl)c(Cl)cc2O)CC1` [Compound 142, 1-[4-[(R)-amino(4,5-dichloro-2-hydroxyphenyl)methyl]piperidin-1-yl]-3-hydroxy-2,2-dimethylpropan-1-one trifluoroacetic acid]: the IC50 in assay [1] is under 10 µM; in assay [2] it was under 30 µM.

For `N[C@@H](c1cc(Cl)c(Cl)cc1O)C1CCN(C(=O)[C@@H]2CC[C@H](O)C2)CC1` (single isomer, unassigned; isomer 2) [Compound 179], the concentration for half-maximal inhibition (IC50) in assay [1] is under 0.5 µM; in assay [2], under 30 µM.

With `CC(C)(O)CC(=O)N1CCC(C(N)c2cc(Cl)c(Cl)cc2O)CC1` (stereo not shown) [Compound 49, 1-(4-(amino(4,5-dichloro-2-hydroxyphenyl)methyl)piperidin-1-yl)-3-hydroxyl-3-methylbutan-1-one trifluoroacetic acid], the figures for the IC50 in assay [1] and in assay [2] were under 10 µM and under 30 µM, respectively.

Regarding `N[C@@H](c1cc(Cl)c(Cl)cc1O)C1CCN(C(=O)[C@@H]2CCN2)CC1` [Compound 100, 2-[(R)-amino([1-[(2S)-azetidine-2-carbonyl]piperidin-4-yl])methyl]-4,5-dichlorophenol], the IC50 was under 0.5 µM in assay [1] and over 30 µM in assay [2].

As for `Cc1cc(O)c([C@H](N)C2CCN(C(=O)c3c[nH]c(=O)c(Cl)c3)CC2)c(F)c1Cl` [Compound 264, 5-[4-[(R)-amino(3-chloro-2-fluoro-6-hydroxy-4-methylphenyl)methyl]piperidine-1-carbonyl]-3-chloro-1H-pyridin-2-one Trifluoroacetic Acid], the IC50 in assay [1] is under 10 µM; in assay [2], over 30 µM.

Regarding `C[C@H]1CN(C(=O)[C@H](O)CO)CC[C@H]1[C@@H](N)c1cc(Cl)c(Cl)cc1O` (single isomer, unassigned; isomer 2) [Compound 332], the IC50 in assay [1] was under 0.5 µM; in assay [2] it was over 30 µM.

Regarding `Cc1cc(O)c([C@H](N)C2CCN(S(=O)(=O)C3CCNC3)CC2)cc1Cl` (stereo partly drawn) [Compound 236, 2-[(R)-amino[1-(pyrrolidine-3-sulfonyl)piperidin-4-yl]methyl]-4-chloro-5-methylphenol Trifluoroacetic Acid], the IC50 in assay [1] was under 0.5 µM; in assay [2], over 30 µM.

Take `N[C@@H](c1cc(Cl)c(Br)cc1O)C1CCN(C(=O)[C@H](O)CO)CC1` [Compound 317, (2R)-1-[4-[(R)-amino(4-bromo-5-chloro-2-hydroxyphenyl)methyl]piperidin-1-yl]-2,3-dihydroxypropan-1-one Trifluoroacetic Acid]: the results for the IC50 in assay [1] and in assay [2] were under 0.5 µM and over 30 µM, respectively.

Take `N[C@@H](c1cc(Cl)c(Cl)cc1O)C1CCN(C(=O)[C@H]2C[C@H](O)C2)CC1` [Compound 139, 2-[(R)-amino([1-[(1R,3R)-3-hydroxycyclo-butanecarbonyl]piperidin-4-yl])methyl]-4,5-dichlorophenol trifluoroacetic acid]: the IC50 in assay [1] is under 0.5 µM; in assay [2], over 30 µM.

Regarding `N[C@@H](c1cc(Cl)c(Cl)cc1O)C1CCN(C(=O)[C@@H]2COCCO2)CC1` [Compound 170, 2-[(R)-amino([1-[(2S)-1,4-dioxane-2-carbonyl]piperidin-4-yl])methyl]-4,5-dichlorophenol trifluoroacetic acid], the values for the IC50 in assay [1] and in assay [2] were under 10 µM and under 30 µM, respectively.
